Reference: patent publication US20260265267A1, “NOVEL COMPOUNDS WITH MTORC2-INHIBITORY ACTIVITY AND USES THEREOF” (Aliad Biopharma, priority 2023, published 2026)

Key:
mTORC2 [1] = biological target: T1, mTORC2 (Homo sapiens, UniProt P42345); assay: mTORC2 inhibitory activity in HeLa cells (Akt Ser473 phosphorylation, Western blot); format: cell-based; settings: for remaining activity at 40 µM: read-out: pSer473-AKT/AKT (% control); for inhibition at 40 µM: HeLa, 9 h, read-out: reduction in Akt Ser473 phosphorylation compared to the control group
T1 construct: the following experiments were conducted in HeLa cells; endogenous in cells; host or cells: HeLa
Protocol: (§1) Specifically, HeLa cells were cultured in a 5% CO2 incubator at 37° C. in DMEM (Dulbecco's Modified Eagles Media) medium supplemented with 10% FBS, penicillin (100 unit/ml), and streptomycin (100 μg/ml). Cultivation was started by seeding 4×10^5 cells in a 100 mm culture dish, and subculture was carried out every 3 days.
(§2) Human cell line HeLa cells were seeded in a 60 mm culture dish at a density of 2×10^5 cells/plate, and cultured for 24 hours. Then, HeLa cells were treated with 70 types of compounds at a concentration of 40 μM each for 9 hours. HeLa cells were washed twice with cold 1×PBS, and then lysed with 100 μl of RIPA buffer (50 mM Tris-HCl (pH7.4), 0.25% sodium deoxycholate, 50 mM NaF, 1% NP-40, 150 mM NaCl, 1 mM β-glycerophosphate, 1 mM PMSF, 1 mM NaVO4, 1 μg/ml leupeptin, 1 μg/ml pepstatin A, 10 nM calyculin A, 10 μg/ml aprotinin, 1 mM EDTA) to hemolyze the cell membrane. Then, the lysates were centrifuged at 12,000 rpm at 4° C. for 10 minutes to collect the supernatant, which is cell lysate. Protein concentration in the cell lysate was determined using the BCA protein assay kit (Thermo Fisher Scientific), and equal amounts of protein were separated by SDS-PAGE.
(§3) Western blot analysis was performed by the following method. […] After washing the membrane three times for 5 minutes each with TBS-T buffer, it was incubated with primary antibodies diluted in TBS-T buffer containing 5% skim milk or 5% BSA overnight at 4° C. Subsequently, the membrane was washed three times for 5 minutes each with TBS-T buffer, and then incubated with secondary antibodies diluted in TBS-T buffer containing 5% skim milk at room temperature for 30 minutes. The membrane was washed five times for 5 minutes each with TBS-T buffer containing 5% skim milk, and then the protein bands bound by the secondary antibody were detected using a chemiluminescence method. The primary antibodies used were Akt (cell signaling, #4691), pAkt(S473) (Cell signaling, #4060), p70S6K (Cell signaling, #S6198), pp70S6K(T389) (cell signaling, #9205S), LC3-II (MBL, #PM036), and the secondary antibodies used were HRP conjugated anti-rabbit (Jackson immunoresearch laboratory, #711-035-152) and HRP conjugated anti-mouse IgG (Jackson immunoresearch laboratory, #515-035-072).
As an mTORC2 activity indicator in HeLa cells, the level of Akt Ser473 phosphorylation was selected as a marker, and the phosphor-Akt (Ser473) signal obtained from Western blot analysis was normalized to the pan-Akt signal, and the data were expressed as a percentage relative to the control group treated with DMSO only, which is a vehicle.

mTORC1 [2] = biological target: T2, mTORC1 (Homo sapiens, UniProt P42345); assay: mTORC1 inhibitory activity in HeLa cells (p70S6K Thr389 phosphorylation, Western blot); format: cell-based; settings: for remaining activity at 40 µM: 9 hours, read-out: pThr389-S6K/S6K (% control)
T2 construct: the following experiments were conducted in HeLa cells; endogenous in cells; host or cells: HeLa
Protocol: as §1, §2, §3
As an mTORC1 activity indicator in HeLa cells, the level of p70S6K Thr389 phosphorylation was selected as a marker, and the level of phosphor-p70S6K (Thr389) signal measured by Western blot analysis was normalized to a level of pan-p70S6K signal, and then expressed as a percentage of the control group treated with only DMSO, which is a vehicle.

LC3-II [3] = assay: LC3-II formation as indicator of autophagy in HeLa cells (Western blot); format: cell-based, human; settings: 9 hours; for activity at 40 µM: Homo sapiens, read-out: LC3-II (% control)
Protocol: as §1, §2, §3
LC3-II formation was selected as an indicator of autophagy in HeLa cells, and the LC3-II signal obtained from Western blot analysis was normalized to the pan-Akt signal and the data were expressed as a percentage relative to the control group treated with DMSO only, which is a vehicle.

mTORC2 [4] = assay: mTORC2 inhibitory activity in primary cultured cerebral neurons (Akt Ser473 phosphorylation); format: cell-based, SD mice
Protocol: Specifically, primary neural cells were cultured from the cerebral cortex of E16 embryos of SD mice with a gestational age 16-day (Orient Bio). The extracted brain was separated into the left and right hemispheres, the meninges were removed, and the brains were treated with trypsin in Ca^2+/Mg^2+-free HBSS solution.
The time-dependent changes in Akt Ser473 phosphorylation, Akt Thr308 phosphorylation, and LC3-II levels were measured by Western blot analysis.

mTORC1 [5] = assay: mTORC1 inhibitory activity in primary cultured cerebral neurons (S6K Thr389 phosphorylation); format: cell-based, SD mice
LC3-II [6] = assay: LC3-II levels in primary cultured cerebral neurons; format: cell-based, SD mice
Protocol: Specifically, primary neural cells were cultured from the cerebral cortex of E16 embryos of SD […] with a gestational age 16-day (Orient Bio). The extracted brain was separated into the left and right hemispheres, the meninges were removed, and the brains were treated with trypsin in Ca^2+/Mg^2+-free HBSS solution. […] The cells were seeded at a density of 19,000 cells/cm^2 onto 35 mm culture dishes coated with 50 μg/ml poly-D-Lysine (Sigma, P0899) and 1 μg/ml laminin (Invitrogen, 23017-015), and then maintained in neurobasal complete media supplemented with B27 (Gibco, 17504-044) in a 5% CO2 incubator.
Therefore, the evaluation of mTORC2 inhibitory activity in primary cultured cerebral cells was conducted using the same method as in Experimental Example 1, except that each compound was treated at concentrations of 500 nM or 100 nM for 24 hours. The time-dependent changes in Akt Ser473 phosphorylation, Akt Thr308 phosphorylation, and LC3-II levels were measured by Western blot analysis.

[7] = biological target: T3, mTOR(CD) protein and mLST8 protein (Homo sapiens, UniProt P42345+Q9BVC4); assay: mTOR(CD)-mLST8 binding assay (co-precipitation, Western blot); settings: 0.04 to 40 μM
T3 construct: mTOR C-terminal domain (mTOR(CD), a.a. 2179-2549); made in house; host or cells: E. coli (mTOR(CD)); insect Sf9 cells (mLST8, used as a crude extract)
Protocol: mLST8 binds to the mTOR C-terminal domain (mTOR(CD), a.a. 2179-2549). After binding to mTOR, mLST8 interacts with mSin1 and Rictor to complete the formation of the mTORC2 complex, serving as a scaffold. In order to evaluate the inhibitory activity of the compounds synthesized in Examples 1 to 70 on the binding between mLST8 protein and mTOR(CD) protein, the following mTOR(CD)-mLST8 binding assay was performed. Four types of compounds: HN2210, HN2213, HN2221 and HN2313 were used as the experimental target compounds.
Specifically, mTOR(CD) protein was overexpressed in E. coli, labeled with biotin, and then partially purified. mLST8 protein was overexpressed in insect Sf9 cells to obtain mLST8 extract. mTOR(CD)-biotin and mLST8 extract were incubated at 4° C. to induce binding between mTOR(CD)-biotin and mLST8 proteins, and then the mTOR(CD)-biotin and mLST8 complex were co-precipitated using avidin-agarose beads. The relative amounts of precipitated mTOR(CD)-biotin and mLST8 proteins were measured by Western blot analysis, as shown in FIG. 4. Four types of compounds were added during the incubation process of the mTOR(CD)-biotin and mLST8 extract.

Row | remaining activity at 40 µM (mTORC2 [1]; 9 hours) [%] | inhibition at 40 µM (mTORC2 [1]) [%] | remaining activity at 40 µM (mTORC1 [2]) [%] | inhibition at 40 µM (mTORC1 [2]; HeLa, 9 h, read-out: reduction in p70S6K Thr389 phosphorylation compared to the control group) [%] | selective inhibition of mTORC2 (mTORC2 [1]; 40 μM, 9 hours, versus mTORC1) | inhibition of the binding between mTOR(CD) and mLST8 proteins [7] | Compound | increase in LC3-II (LC3-II [3]; 40 μM) [%] | activity at 40 µM (LC3-II [3]) [%] | selectivity for mTORC2 over mTORC1 (mTORC2 [4]) | pSer473-AKT/AKT (% control) (mTORC2 [4]; 100 nM, 24 hours) | effect on Akt Ser473 phosphorylation (mTORC2 [4]; 500 nM or 100 nM, 24 hours) | decrease in AKT Ser473 phosphorylation at 24 hours (mTORC2 [4]; 500 nM or 100 nM, at 24 hours) [%] | AKT Ser473 phosphorylation from 1 to 12 hours (mTORC2 [4]; from 1 to 12 hours) | pThr389-S6K/S6K (% control) (mTORC1 [5]; 100 nM, 24 hours) | effect on S6K Thr389 phosphorylation (mTORC1 [5]; 500 nM or 100 nM, time course to 24 hours (HN2304: from 6 to 24 hours)) | LC3-II (% control) (LC3-II [6]; 100 nM, 24 hours) | effect on LC3-II (LC3-II [6]; 500 nM or 100 nM, time course to 24 hours)
1 | 72 | > 20 | 60 | 40 |  |  | COc1ccccc1CNc1cc2c(cc1F)C(=O)c1cc3c(cc1OC2)OCO3 [HN2323, 9-fluoro-8-((2-methoxybenzyl)amino)-[1,3]dioxolo[4′,5′:4,5]benzo[1,2-b]benzo[e]oxepin-11(6H)-one] | 80 | 180 | selective mTORC2 inhibitors | 48 | reduce Akt Ser473 phosphorylation | 52 | increased AKT Ser473 phosphorylation significantly | 128 | no effect | 135 | no effect
2 | 77 | > 20 | 93 |  | selectively inhibit mTORC2 | did not significantly inhibit | O=C1c2cc(F)c(NC3CCCCC3)cc2COc2cc3c(cc21)OCO3 [HN2221, 8-(cyclohexylamino)-9-fluoro[2]benzoxepino[3,4-f]-1,3-benzodioxol-11(6H)-one] |  | 119 |  |  |  |  |  |  |  |  | 
